According to PubChem BioAssay AID671 (University of Pittsburgh Molecular Library Screening Center, 2007):

Target: M-phase inducer phosphatase 2 (Homo sapiens) (UniProt P30305)
Assay: inhibition of Cdc25B catalytic domain activity – biochemical, with glutathione, probe assessment, dose response (AID 671)
Conditions: recombinant Cdc25B catalytic domain

Chain of M-phase inducer phosphatase 2 (Homo sapiens) (P30305 whole entry, looked up, the tested form may be a part): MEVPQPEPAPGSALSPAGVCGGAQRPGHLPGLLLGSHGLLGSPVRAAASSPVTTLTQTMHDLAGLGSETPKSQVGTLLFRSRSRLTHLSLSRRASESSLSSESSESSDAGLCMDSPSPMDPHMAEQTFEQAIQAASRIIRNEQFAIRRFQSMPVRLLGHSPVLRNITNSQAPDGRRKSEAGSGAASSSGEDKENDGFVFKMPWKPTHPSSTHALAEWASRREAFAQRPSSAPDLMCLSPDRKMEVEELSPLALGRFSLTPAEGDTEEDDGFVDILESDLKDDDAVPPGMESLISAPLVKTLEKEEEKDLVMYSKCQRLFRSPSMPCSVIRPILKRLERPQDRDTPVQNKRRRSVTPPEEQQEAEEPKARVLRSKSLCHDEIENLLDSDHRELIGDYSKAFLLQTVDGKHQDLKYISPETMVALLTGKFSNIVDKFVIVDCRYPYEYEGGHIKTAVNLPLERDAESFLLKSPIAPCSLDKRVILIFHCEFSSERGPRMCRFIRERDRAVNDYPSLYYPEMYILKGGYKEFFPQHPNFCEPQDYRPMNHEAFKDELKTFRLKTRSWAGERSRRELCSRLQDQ

With `Cc1ccc2c(c1)C1C=CCC1C(C(=O)O)N2` (stereo not drawn) as the compound, how does the IC50 read?
The IC50 was 5.89 µM.

Same assay, conditions: recombinant Cdc25B catalytic domain, measured here: inhibition at top dose 50 uM, at 50 µM, stronger effect = higher value

How did the inhibition turn out when `CCOc1ccc2noc3c2c1C(=O)c1ccccc1-3` was run?
Its inhibition is 30.7%.

Which inhibition does the source give for `Cc1ccc2c(c1C)NC(C(=O)O)C1CC=CC21` (stereo not drawn) here?
Its inhibition is 89.9%.

For `Cc1ccc2c(c1)C1C=CCC1C(C(=O)O)N2` (stereo not drawn), which inhibition is on record?
The inhibition was 88.9%.

How did the inhibition turn out when `O=C(OC1CCCCC1)c1ccc2c(c1)C1C=CCC1C(C(=O)O)N2` (stereo not drawn) was run?
The inhibition was 90.2%.

Which inhibition does the source give for `O=C(O)C1Nc2c(O)cccc2C2C=CCC12` (stereo not drawn) here?
The inhibition was 94.8%.

For `Cc1ccccc1Nc1cc2ccccc2c(=O)[nH]1`, which inhibition is on record?
Its inhibition is 40.3%.

With `Cc1c(N=c2c(=O)c3ccccc3c2=O)c(=O)n(-c2ccccc2)n1C` as the compound, how does the inhibition read?
Its inhibition is 30.4%.

Which inhibition does the source give for `COc1ccc(Br)cc1/C=c1\sc2nc(-c3ccco3)nn2c1=O` here?
The inhibition was 91.7%.

Which inhibition does the source give for `CC(=O)Nc1cc(OC(C)=O)c2nonc2c1OC(C)=O` here?
The inhibition was 28.7%.

How did the inhibition turn out when `N#Cc1c(N2CCCC2)nc(N)c2c(N)nc(N3CCCC3)cc12` was run?
Its inhibition is -13.3%.

With `CCn1nc(-c2cccs2)nc2c(=O)n(C)c(=O)nc1-2` as the compound, how does the inhibition read?
Its inhibition is 41.5%.

With `CCn1nc(-c2ccccc2)nc2c(=O)n(C)c(=O)nc1-2` as the compound, how does the inhibition read?
The inhibition was 34.5%.

For `N#Cc1c(N)sc(=S)c2c1CCN(Cc1ccccc1)C2`, which inhibition is on record?
Its inhibition is 51%.

`O=c1[nH]c(Nc2ccccc2)cc2ccccc12` was tested. Which inhibition did it give?
The inhibition was 48.6%.

For `CCOC(=O)C(C(=O)OCC)c1cc(Br)c2noc3c2c1C(=O)c1ccccc1-3`, which inhibition is on record?
The inhibition was 36.5%.

With `[O-]/[N+](=C\c1ccc(OC(F)F)cc1)c1ccccc1` as the compound, how does the inhibition read?
Its inhibition is 8.3%.

For `O=C1C=Cc2ccccc2C1=O`, which inhibition is on record?
Its inhibition is 78.6%.

Which inhibition does the source give for `O=C(Nc1ccc2nc(-c3ccco3)c(-c3ccco3)nc2c1)N1CCCCCC1` here?
Its inhibition is 85.5%.

`c1ccc(CSc2nnc(-c3ccco3)c(-c3ccco3)n2)cc1` was tested. Which inhibition did it give?
Its inhibition is 84.7%.

With `Nc1cccc2cnccc12` as the compound, how does the inhibition read?
Its inhibition is -3.3%.

With `O=C1Cc2ccccc2C(=O)N1CCc1ccccc1` as the compound, how does the inhibition read?
The inhibition was 7.6%.

With `Cn1ncnc2c(=O)n(C)c(=O)nc1-2` as the compound, how does the inhibition read?
Its inhibition is 63%.

How did the inhibition turn out when `COc1cccc2c1NC(C(=O)O)C1CC=CC21` (stereo not drawn) was run?
Its inhibition is 85%.

For `COc1cccc2c(C)c(C(=O)O)[nH]c12`, which inhibition is on record?
Its inhibition is 85.7%.

With `COc1ccc2noc3c2c1C(=O)c1ccccc1-3` as the compound, how does the inhibition read?
Its inhibition is 16.7%.

Which inhibition does the source give for `O=C(NC1(O)C(=O)c2ccccc2C1=O)c1ccccc1` here?
The inhibition was 36%.

How did the inhibition turn out when `[O-]/[N+](=C\c1ccncc1)c1ccccc1` was run?
The inhibition was 4.4%.
